What was measured:
[1] = test system: colorectal adenoma cancer cell line (HT-29); set-up: method as in doi:10.1016/j.tet.2006.12.076; settings: cancer cell line growth inhibition; cited from earlier work
[2] = test system: human embryonic kidney cells (HEK293); test: Safety study in vitro (MTS viability), HEK293; format: cell-based; settings: 0.205–50 μM, 72 h
Protocol: (§1) In drug development, particular attention should be paid to studying the safety profile of compounds. Promising drug candidates should not cause adverse effects on essential organ systems like the liver, kidney, or healthy cells in general. Systemic toxicity of the compound is the main factor limiting its therapeutic application and efficiency. In our study, a preliminary study on nephrotoxicity and hepatotoxicity was evaluated in human embryonic kidney cells (HEK293, ATCC® CRL1573™) and human hepatoma cells (HepG2, ATCC® HB8065™), respectively. HEK293 is commonly used to evaluate the cytotoxicity of nephrotoxic compounds [42]. HepG2 is a well-established in vitro human cell system to study liver toxicity. We also used healthy human skin fibroblast (HSF) to extend the cytotoxicity profile. All three cell lines were cultured in DMEM (Gibco no. 61965-026, UK) supplemented with 10% FBS (Gibco no. 10500-064, UK). For the experiment, cells were seeded (8 × 10^3 cells/100μL/well) in transparent 96-well plates (FALCON no. 353072, Corning, Durham, […], USA) and cultured overnight. […] DOX was a reference compound that adversely affected the liver, kidney, and healthy cells. Treatment with compounds was carried out for 72 h. Cell viability was examined using an MTS-based CellTiter96® AQueous One Solution Cell Proliferation Assay (Promega, Madison, WI, USA) following the manufacturer’s protocol.

[3] = test system: human hepatoma cells (HepG2); test: Safety study in vitro (MTS viability), HepG2; format: cell-based; settings: 0.205–50 μM, 72 h
Protocol: as §1

[4] = test system: human skin fibroblast (HSF); test: Safety study in vitro (MTS viability), HSF; format: cell-based; settings: 0.205–50 μM, 72 h
Protocol: as §1

[5] = test system: prostate cancer cells (PC-3); test: MTS-based cytotoxicity assay, PC-3; format: cell-based, human; settings: 72 h treatment, 0.205–50 μM, mean ± SEM
Protocol: (§2) In this study, we applied the most extensively used MTS-based assay, which provides a valuable tool for determining cell viability by evaluating metabolic activity. The cytostatic activity of the tested compounds was defined as the half-maximal inhibitory concentration (IC50) causing a 50% decrease in the metabolic activity of the cells. It was determined against breast cancer (MCF-7), fibrosarcoma (HT-1080), and prostate cancer (PC-3) cells.
(§3) The tested compounds were tested against three different human cancer cell lines (breast adenocarcinoma MCF-7 ATCC® HTB-22^TM, fibrosarcoma HT-1080 ATCC® CCL121^TM, and prostate adenocarcinoma PC-3 ATCC® CRL-1435^TM). For the cell viability experiment, cells were seeded in transparent 96-well plates (FALCON no. 353072, Corning, Durham, NC, USA) in MEM (Gibco no. 31095-029, UK) supplemented with 10% heat-inactivated FBS (Gibco no. 10500-064, UK). The cell seeding density was as follows: MCF-7 12,000 cells/well, HT-1080 7000 cells/well, PC-3 10,000 cells/well. Cells were seeded one day before treatment with the tested compounds and cultured overnight. The confluence on the treatment day was around 30%. The tested compounds were dissolved in DMSO as 10 mM stock solutions and kept under −4 °C. On the day of experimentation, the medium was removed and replaced with a fresh one that contained the following: (1) dimethylsulfoxide (DMSO < 0.1%, vehicle control (Veh)); (2) increasing the concentration of compounds (0.205–50 μM, performed as a 2.5-fold serial dilution for dose–response analysis). Treatment with compounds was carried out for 72 h. Each treatment was replicated three times in a single experiment, with three separate experiments conducted. (n = 9). When significant variability in the results occurred, an additional test was performed on certain compounds. During the incubation, the cells were examined under an inverted microscope to check if the compounds had not precipitated in the culture medium. The inhibitory effect of compounds on the cell was examined using an MTS-based assay (Promega, Madison, WI, USA) following the manufacturer’s protocol. The absorbance was measured at 490 nm using Tecan Spark’s multimode plate reader (Tecan, Männedorf, Switzerland). A reference wavelength of 630 nm was used to subtract the background. IC50 values were calculated by fitting a non-linear regression to a sigmoidal dose–response curve in GraphPad Prism version 8.0.1.

[6] = test system: fibrosarcoma cells (HT-1080); test: MTS-based cytotoxicity assay, HT-1080; format: cell-based, human; settings: 72 h treatment, 0.205–50 μM, mean ± SEM
Protocol: as §2, §3

[7] = test system: breast cancer cells (MCF-7); test: MTS-based cytotoxicity assay, MCF-7; format: cell-based, human; settings: 72 h treatment, 0.205–50 μM, mean ± SEM
Protocol: as §2, §3

HCT-116 = test system: HCT-116; set-up: method as in PMID 37903949; settings: cytotoxic activity; cited from earlier work

## CO[C@@]12[C@H](COC(N)=O)C3=C(C(=O)C(C)=C(N)C3=O)N1C[C@@H]1N[C@@H]12 [Mitomycin C]
[1]
  GI, HT-29: 31%

## O=c1c2ccccc2n(CC2CC(P(=O)(OCc3ccccc3)OCc3ccccc3)N(Cc3ccccc3)O2)c(=O)n1Cc1ccccc1F (stereo not drawn) [cis-16b/trans-16b (90:10), Dibenzyl cis- and trans-5-((3-(2-fluorobenzyl)-3,4-dihydro-2,4-dioxoquinazolin-1(2H)-yl)methyl)-2-benzylisoxazolidin-3-yl-3-phosphonate]
[2]
  Cell viability, HEK293: did not affect cell viability
[3]
  Cell viability, HepG2: did not affect cell viability
[4]
  Cell viability, HSF: no adverse effect was observed
[5]; Homo sapiens, 72 h
  IC50: 11.2 ± 1.99 µM
[6]; Homo sapiens, HT-1080, 72 h
  IC50: 27.3 ± 5.43 µM
[7]; Homo sapiens, MCF7, 72 h
  IC50: 104 ± 7.38 µM

## O=c1c2ccccc2n(C[C@@H]2C[C@@H](P(=O)(OCc3ccccc3)OCc3ccccc3)N(Cc3ccccc3)O2)c(=O)n1Cc1ccccc1[N+](=O)[O-] (relative stereo) [trans-16e, Dibenzyl cis- and trans-(2-benzyl-5-((3-(2-nitrobenzyl)-2,4-dioxo-3,4-dihydroquinazolin-1(2H)-yl)methyl)isoxazolidin-3-yl)phosphonate]
[5]; Homo sapiens, 72 h
  IC50: 26.6 ± 1.09 µM
[6]; Homo sapiens, HT-1080, 72 h
  IC50: 29.8 ± 4.75 µM
[7]; Homo sapiens, MCF7, 72 h
  IC50: 57.9 ± 8.36 µM

## O=c1c2ccccc2n(CC2CC(P(=O)(OCc3ccccc3)OCc3ccccc3)N(Cc3ccccc3)O2)c(=O)n1Cc1ccccc1 (stereo not drawn) [cis-16a/trans-16a (97:3), Dibenzyl cis- and trans-2-benzyl-5-((3-benzyl-3,4-dihydro-2,4-dioxoquinazolin-1(2H)-yl)methyl)isoxazolidin-3-yl-3-phosphonate]
[2]
  Cell viability, HEK293: did not affect cell viability
[3]
  Cell viability, HepG2: did not affect cell viability
[4]
  Cell viability, HSF: no adverse effect was observed
[5]; Homo sapiens, 72 h
  IC50: 12.6 ± 5.56 µM
[6]
  IC50: 19.9 ± 8.13 µM
[7]; Homo sapiens, MCF7, 72 h
  IC50: 90.3 ± 4.57 µM

## O=C(O)c1ccc(NC(=S)NC(=O)c2ccc(-n3c(=O)[nH]c4ccccc4c3=O)cc2)cc1 [Compound 13]
HCT-116
  IC50: 1.18 ± 0.06 µM

## O=c1c2ccccc2n(C[C@@H]2C[C@@H](P(=O)(OCc3ccccc3)OCc3ccccc3)N(Cc3ccccc3)O2)c(=O)n1Cc1ccc([N+](=O)[O-])cc1 (relative stereo) [trans-16g, Dibenzyl cis- and trans-(2-benzyl-5-((3-(4-nitrobenzyl)-2,4-dioxo-3,4-dihydroquinazolin-1(2H)-yl)methyl)isoxazolidin-3-yl)phosphonate]
[5]; Homo sapiens, 72 h
  IC50: 16.7 ± 3.48 µM
[6]; Homo sapiens, HT-1080, 72 h
  IC50: 16.6 ± 3.11 µM
[7]; Homo sapiens, MCF7, 72 h
  IC50: 142 ± 5.11 µM

## O=c1c2ccccc2n(C[C@@H]2C[C@@H](P(=O)(OCc3ccccc3)OCc3ccccc3)N(Cc3ccccc3)O2)c(=O)n1Cc1ccc(F)cc1 (relative stereo) [trans-16d, Dibenzyl cis- and trans-5-((3-(4-fluorobenzyl)-3,4-dihydro-2,4-dioxoquinazolin-1(2H)-yl)methyl)-2-benzylisoxazolidin-3-yl-3-phosphonate]
[5]; Homo sapiens, 72 h
  IC50: 13.9 ± 2.14 µM
[6]; Homo sapiens, HT-1080, 72 h
  IC50: 35.6 ± 3.03 µM
[7]; Homo sapiens, MCF7, 72 h
  IC50: 88.9 ± 3.86 µM

## O=c1c2ccccc2n(CC2CC(P(=O)(OCc3ccccc3)OCc3ccccc3)N(Cc3ccccc3)O2)c(=O)n1Cc1ccccc1 (stereo not drawn) [trans-16a, Dibenzyl cis- and trans-2-benzyl-5-((3-benzyl-3,4-dihydro-2,4-dioxoquinazolin-1(2H)-yl)methyl)isoxazolidin-3-yl-3-phosphonate]
[5]
  IC50: 12.7 ± 3.45 µM
[6]
  IC50: 40.5 ± 5.44 µM
[7]
  IC50: 96 ± 4.66 µM

## O=c1c2ccccc2n(C[C@@H]2C[C@@H](P(=O)(OCc3ccccc3)OCc3ccccc3)N(Cc3ccccc3)O2)c(=O)n1Cc1cccc(F)c1 (relative stereo) [trans-16c, Dibenzyl cis- and trans-5-((3-(3-fluorobenzyl)-3,4-dihydro-2,4-dioxoquinazolin-1(2H)-yl)methyl)-2-benzylisoxazolidin-3-yl-3-phosphonate]
[5]; Homo sapiens, 72 h
  IC50: 16.4 ± 4.32 µM
[6]; Homo sapiens, HT-1080, 72 h
  IC50: 42.3 ± 3.48 µM
[7]; Homo sapiens, MCF7, 72 h
  IC50: 130 ± 9.97 µM

## O=c1c2ccccc2n(CC2CC(P(=O)(OCc3ccccc3)OCc3ccccc3)N(Cc3ccccc3)O2)c(=O)n1Cc1cccc([N+](=O)[O-])c1 (stereo not drawn) [cis-16f/trans-16f (96:4), Dibenzyl cis- and trans-2-benzyl-5-((3-(3-nitrobenzyl)-2,4-dioxo-3,4-dihydroquinazolin-1(2H)-yl)methyl)isoxazolidin-3-yl)phosphonate]
[5]; Homo sapiens, 72 h
  IC50: 24.8 ± 2.15 µM
[6]; Homo sapiens, HT-1080, 72 h
  IC50: 17.1 ± 5.73 µM
[7]; Homo sapiens, MCF7, 72 h
  IC50: 91.7 ± 1.47 µM

## COc1cccc2c1C(=O)c1c(O)c3c(c(O)c1C2=O)C[C@@](O)(C(=O)CO)C[C@@H]3O[C@H]1C[C@H](N)[C@H](O)[C@H](C)O1 [Doxorubicin, reference compound]
[2]
  Cell viability, HEK293: significant cytotoxic effect
[3]
  Cell viability, HepG2: significant cytotoxic effect
[4]
  Cell viability, HSF: significant cytotoxic effect

## O=c1c2ccccc2n(C[C@@H]2C[C@@H](P(=O)(OCc3ccccc3)OCc3ccccc3)N(Cc3ccccc3)O2)c(=O)n1Cc1cccc([N+](=O)[O-])c1 (relative stereo) [trans-16f, Dibenzyl cis- and trans-2-benzyl-5-((3-(3-nitrobenzyl)-2,4-dioxo-3,4-dihydroquinazolin-1(2H)-yl)methyl)isoxazolidin-3-yl)phosphonate]
[5]; Homo sapiens, 72 h
  IC50: 18.1 ± 0.98 µM
[6]; Homo sapiens, HT-1080, 72 h
  IC50: 23.1 ± 9.22 µM
[7]; Homo sapiens, MCF7, 72 h
  IC50: 59.4 ± 0.78 µM

## O=c1c2ccccc2n(CC2CC(P(=O)(OCc3ccccc3)OCc3ccccc3)N(Cc3ccccc3)O2)c(=O)n1Cc1ccc(F)cc1 (stereo not drawn) [cis-16d/trans-16d (96:4), Dibenzyl cis- and trans-5-((3-(4-fluorobenzyl)-3,4-dihydro-2,4-dioxoquinazolin-1(2H)-yl)methyl)-2-benzylisoxazolidin-3-yl-3-phosphonate]
[5]; Homo sapiens, 72 h
  IC50: 16.4 ± 3.69 µM
[6]; Homo sapiens, HT-1080, 72 h
  IC50: 10.4 ± 2.69 µM
[7]; Homo sapiens, MCF7, 72 h
  IC50: 116 ± 5.73 µM

## O=c1c2ccccc2n(CC2CC(P(=O)(OCc3ccccc3)OCc3ccccc3)N(Cc3ccccc3)O2)c(=O)n1Cc1cccc(F)c1 (stereo not drawn) [cis-16c/trans-16c (90:10), Dibenzyl cis- and trans-5-((3-(3-fluorobenzyl)-3,4-dihydro-2,4-dioxoquinazolin-1(2H)-yl)methyl)-2-benzylisoxazolidin-3-yl-3-phosphonate]
[5]; Homo sapiens, 72 h
  IC50: 17.6 ± 6.21 µM
[6]; Homo sapiens, HT-1080, 72 h
  IC50: 20.5 ± 1.56 µM
[7]; Homo sapiens, MCF7, 72 h
  IC50: 238 ± 20.7 µM

## O=c1c2ccccc2n(CC2CC(P(=O)(OCc3ccccc3)OCc3ccccc3)N(Cc3ccccc3)O2)c(=O)n1Cc1ccc([N+](=O)[O-])cc1 (stereo not drawn) [cis-16g/trans-16g (88:12), Dibenzyl cis- and trans-(2-benzyl-5-((3-(4-nitrobenzyl)-2,4-dioxo-3,4-dihydroquinazolin-1(2H)-yl)methyl)isoxazolidin-3-yl)phosphonate]
[5]; Homo sapiens, 72 h
  IC50: 21.5 ± 4.63 µM
[6]; Homo sapiens, HT-1080, 72 h
  IC50: 16.4 ± 2.03 µM
[7]; Homo sapiens, MCF7, 72 h
  IC50: 116 ± 9.69 µM

## O=c1c2ccccc2n(CC2CC(P(=O)(OCc3ccccc3)OCc3ccccc3)N(Cc3ccccc3)O2)c(=O)n1Cc1ccccc1[N+](=O)[O-] (stereo not drawn) [cis-16e/trans-16e (70:30), Dibenzyl cis- and trans-(2-benzyl-5-((3-(2-nitrobenzyl)-2,4-dioxo-3,4-dihydroquinazolin-1(2H)-yl)methyl)isoxazolidin-3-yl)phosphonate]
[5]; Homo sapiens, 72 h
  IC50: 26.6 ± 4.69 µM
[6]; Homo sapiens, HT-1080, 72 h
  IC50: 59.6 ± 0.36 µM
[7]; Homo sapiens, MCF7, 72 h
  IC50: 59.1 ± 3.77 µM

— paper PMC11243672, “New 3-(Dibenzyloxyphosphoryl)isoxazolidine Conjugates of N1-Benzylated Quinazoline-2,4-diones as Potential Cytotoxic Agents against Cancer Cell Lines” (Molecules, 2024)
